From patent US11180504B2 (ORCHID PHARMA LTD., priority 2016, dated 2021) come the findings set out here.

Assay [1] relates to carbapenem sensitive Pseudomonas aeruginosa. The assay is described as follows: MIC by broth micro-dilution (CLSI), carbapenem sensitive P. aeruginosa. Type of assay: cell-based. To be noted: Pseudomonas aeruginosa, ATCC27853, Meropenem susceptible P. aeruginosa ATCC27853; read-out: MIC.
The subject of assay [2] is carbapenem sensitive Escherichia coli. The assay is described as follows: MIC by broth micro-dilution (CLSI), carbapenem sensitive E. coli. Type of assay: cell-based. The settings on record: Escherichia coli, ATCC25922, ESBL −ve E. coli ATCC25922; read-out: MIC.
Assay [3] deals with carbapenemase producing K. pneumoniae. The assay is described as follows: MIC by broth micro-dilution (CLSI), carbapenemase producing K. pneumoniae. To be noted: Klebsiella pneumoniae, ATCCBAA1705, KPC-2 K. pneumoniae ATCC BAA-1705; read-out: MIC. Type of assay: cell-based, Klebsiella pneumoniae.
Assay [4] has as its system methicillin-sensitive Staphylococcus aureus. The assay is described as follows: MIC by broth micro-dilution (CLSI), methicillin-sensitive S. aureus. In kind it is cell-based. To be noted: Staphylococcus aureus, ATCC 29213 / MSSA, MSSA S. aureus ATCC29213; read-out: MIC.
The test system of assay [5] is extended spectrum β lactamase (ESBL) SHV18 producing Klebsiella pneumoniae. The assay is described as follows: MIC by broth micro-dilution (CLSI), ESBL SHV18 producing K. pneumoniae. Type of assay: cell-based. To be noted: Klebsiella pneumoniae, ATCC700603, 22 h, ESBL +ve (SHV-18) K. pneumoniae ATCC700603; read-out: MIC.

In brackets after ≈: the same amount, converted by molar mass.

Consider `CNC(=O)[C@@H]1C[C@H](SC2=C(C(=O)O)N3C(=O)[C@H]([C@@H](C)NC(=O)C(F)F)[C@H]3[C@H]2C)CN1` [Example 101], for which the MIC in assay [1] was determined as 64 µg/mL (≈ 143 µM); in assay [2], 0.5 µg/mL (≈ 1.12 µM); in assay [3], 4 µg/mL (≈ 8.96 µM); in assay [4] it was 2 µg/mL (≈ 4.48 µM); in assay [5], 1 µg/mL (≈ 2.24 µM).

`C[C@@H](NC(=O)C(F)F)[C@H]1C(=O)N2C(C(=O)O)=C(S[C@@H]3CN[C@H](C(=O)N4CC[C@H](NS(=O)(=O)N(C)C)C4)C3)[C@H](C)[C@H]12` [Example 117]: the MIC in assay [1] is greater than 128 µg/mL; in assay [2], 0.5 µg/mL (≈ 0.821 µM); in assay [3] it was 4 µg/mL (≈ 6.57 µM); in assay [4], 2 µg/mL (≈ 3.29 µM); in assay [5], 2 µg/mL (≈ 3.29 µM).

Take `C[C@@H](NC(=O)C(F)(F)F)[C@H]1C(=O)N2C(C(=O)O)=C(S[C@@H]3CN[C@H](C(=O)N(C)C)C3)[C@H](C)[C@H]12` [Example 64]: the MIC in assay [1] was 64 µg/mL (≈ 134 µM); in assay [2], 1 to 2 µg/mL (≈ 2.09 to 4.18 µM); in assay [3], 8 µg/mL (≈ 16.7 µM); in assay [4] it was 2 µg/mL (≈ 4.18 µM); in assay [5], 8 µg/mL (≈ 16.7 µM).

With `C[C@@H](NC(=O)C(F)F)[C@H]1C(=O)N2C(C(=O)O)=C(S[C@@H]3CN[C@H](C(=O)N4CC[S+]([O-])CC4)C3)[C@H](C)[C@H]12` [Example 42], the MIC in assay [1] is 128 µg/mL (≈ 239 µM); in assay [2] it was 1 µg/mL (≈ 1.87 µM); in assay [3], 8 µg/mL (≈ 15 µM); in assay [4], 2 µg/mL (≈ 3.74 µM); in assay [5] it was 1 µg/mL (≈ 1.87 µM).

Take `C[C@@H](NS(=O)(=O)C(F)(F)F)[C@H]1C(=O)N2C(C(=O)O)=C(S[C@@H]3CN[C@H](C(=O)N4CCOCC4)C3)[C@H](C)[C@H]12` [Example 29]: the MIC is 128 µg/mL (≈ 230 µM) in assay [1]; 1 µg/mL (≈ 1.8 µM) in assay [2]; greater than 128 µg/mL in assay [3]; 4 µg/mL (≈ 7.19 µM) in assay [4]; 8 µg/mL (≈ 14.4 µM) in assay [5].

`C[C@@H](NC(=O)CN)[C@H]1C(=O)N2C(C(=O)O)=C(S[C@@H]3CN[C@H](C(=O)N(C)C)C3)[C@H](C)[C@H]12` [Example 44]: the MIC amounted to 16 µg/mL (≈ 36.4 µM) in assay [1]; 4 µg/mL (≈ 9.1 µM) in assay [2]; 8 µg/mL (≈ 18.2 µM) in assay [3]; 32 µg/mL (≈ 72.8 µM) in assay [4]; 4 µg/mL (≈ 9.1 µM) in assay [5].

Regarding `C[C@@H](NC(=O)C(F)F)[C@H]1C(=O)N2C(C(=O)O)=C(SC3CN[C@H](C(=O)N4CCO[C@@H](CN)C4)C3)[C@H](C)[C@H]12` (stereo partly drawn) [Example 127], the MIC in assay [1] was 32 µg/mL (≈ 60.2 µM); in assay [2], 2 µg/mL (≈ 3.76 µM); in assay [3] it was 16 µg/mL (≈ 30.1 µM); in assay [4], 2 µg/mL (≈ 3.76 µM); in assay [5], 8 µg/mL (≈ 15 µM).

As for `CN[C@@H]1CCN(C(=O)[C@@H]2C[C@H](SC3=C(C(=O)O)N4C(=O)[C@H]([C@@H](C)NC(=O)C(F)F)[C@H]4[C@H]3C)CN2)C1` [Example 149], the MIC in assay [1] was found to be 4 µg/mL (≈ 7.76 µM); in assay [2] it was 1 µg/mL (≈ 1.94 µM); in assay [3], 8 µg/mL (≈ 15.5 µM); in assay [4], 2 µg/mL (≈ 3.88 µM); in assay [5], 8 µg/mL (≈ 15.5 µM).

On to `COC(=O)N[C@H](C)[C@H]1C(=O)N2C(C(=O)O)=C(S[C@@H]3CN[C@H](C(=O)N(C)C)C3)[C@H](C)[C@H]12` [Example 14], for which the MIC in assay [1] was 128 µg/mL (≈ 291 µM); in assay [2], 0.5 µg/mL (≈ 1.14 µM); in assay [3], 4 µg/mL (≈ 9.08 µM); in assay [4], 4 µg/mL (≈ 9.08 µM); in assay [5], 4 µg/mL (≈ 9.08 µM).

For the compound `C[C@@H](NS(=O)(=O)N(C)C)[C@H]1C(=O)N2C(C(=O)O)=C(S[C@@H]3CN[C@H](C(=O)N(C)C)C3)[C@H](C)[C@H]12` [Example 57], the MIC in assay [1] is greater than 128 µg/mL; in assay [2], 4 µg/mL (≈ 8.17 µM); in assay [3], 128 µg/mL (≈ 261 µM); in assay [4], 32 µg/mL (≈ 65.4 µM); in assay [5], 16 µg/mL (≈ 32.7 µM).

With `C[C@@H](NS(C)(=O)=O)[C@H]1C(=O)N2C(C(=O)O)=C(S[C@@H]3CN[C@H](C(=O)N4CC[C@@H](NS(N)(=O)=O)C4)C3)[C@H](C)[C@H]12` [Example 203], the minimal inhibitory concentration (MIC) was 128 µg/mL (≈ 220 µM) in assay [1]; 0.5 µg/mL (≈ 0.861 µM) in assay [2]; 4 µg/mL (≈ 6.89 µM) in assay [3]; 16 µg/mL (≈ 27.6 µM) in assay [4]; 1 µg/mL (≈ 1.72 µM) in assay [5].

In the case of `C[C@@H](NC(=O)C(F)F)[C@H]1C(=O)N2C(C(=O)O)=C(S[C@@H]3CN[C@H](C(=O)N(C)C)C3)[C@H](C)[C@H]12` [Example 32], the MIC in assay [1] came to 32 µg/mL (≈ 69.5 µM); in assay [2], 0.5 µg/mL (≈ 1.09 µM); in assay [3] it was 1 µg/mL (≈ 2.17 µM); in assay [4], 1 µg/mL (≈ 2.17 µM); in assay [5], 1 µg/mL (≈ 2.17 µM).

Take `C[C@@H](NC(=O)C(F)F)[C@H]1C(=O)N2C(C(=O)O)=C(SCc3cccnc3)[C@H](C)[C@H]12` [Example 96]: the MIC in assay [1] was greater than 128 µg/mL; in assay [2] it was 4 µg/mL (≈ 9.72 µM); in assay [3], 32 µg/mL (≈ 77.8 µM); in assay [4] it was 1 µg/mL (≈ 2.43 µM); in assay [5], 64 µg/mL (≈ 156 µM).

As for `C[C@@H](NC(=O)CN(C)C(=N)N)[C@H]1C(=O)N2C(C(=O)O)=C(S[C@@H]3CN[C@H](C(=O)N4CC[C@@H](N)C4)C3)[C@H](C)[C@H]12` [Example 230], the MIC stood at 8 µg/mL (≈ 14.9 µM) in assay [1]; 1 µg/mL (≈ 1.86 µM) in assay [2]; 4 µg/mL (≈ 7.45 µM) in assay [3]; 32 µg/mL (≈ 59.6 µM) in assay [4]; 8 µg/mL (≈ 14.9 µM) in assay [5].

In the case of `C[C@@H](NC(=O)C(F)F)[C@H]1C(=O)N2C(C(=O)O)=C(S[C@@H]3CN[C@H](CNS(N)(=O)=O)C3)[C@H](C)[C@H]12` [Example 38], the MIC in assay [1] was 32 to 64 µg/mL (≈ 64.3 to 129 µM); in assay [2], 1 µg/mL (≈ 2.01 µM); in assay [3] it was 2 to 4 µg/mL (≈ 4.02 to 8.04 µM); in assay [4] it was 0.25 µg/mL (≈ 0.502 µM); in assay [5] it was 1 µg/mL (≈ 2.01 µM).

Consider `CCOC(=O)C(=O)N[C@H](C)[C@H]1C(=O)N2C(C(=O)O)=C(S[C@@H]3CN[C@H](C(=O)N(C)C)C3)[C@H](C)[C@H]12` [Example 28], for which the MIC in assay [1] was 4 to 8 µg/mL (≈ 8.29 to 16.6 µM); in assay [2] it was 2 µg/mL (≈ 4.14 µM); in assay [3], 4 to 8 µg/mL (≈ 8.29 to 16.6 µM); in assay [4] it was 8 µg/mL (≈ 16.6 µM); in assay [5], 2 µg/mL (≈ 4.14 µM).

As to `CC(C)C[C@@H](F)C(=O)N[C@H](C)[C@H]1C(=O)N2C(C(=O)O)=C(S[C@@H]3CN[C@H](C(=O)N(C)C)C3)[C@H](C)[C@H]12` [Example 79], the MIC in assay [1] was greater than 128 µg/mL; in assay [2] it was 32 µg/mL (≈ 64.2 µM); in assay [3], greater than 128 µg/mL; in assay [4], 4 µg/mL (≈ 8.02 µM); in assay [5], greater than 128 µg/mL.

For `C[C@@H](NC(=O)C(F)F)[C@H]1C(=O)N2C(C(=O)O)=C(S[C@@H]3CN[C@H](C(=O)N4CCN(C)CC4)C3)[C@H](C)[C@H]12` [Example 43], the MIC in assay [1] came to 64 µg/mL (≈ 124 µM); in assay [2], 1 µg/mL (≈ 1.94 µM); in assay [3], 8 µg/mL (≈ 15.5 µM); in assay [4] it was 2 µg/mL (≈ 3.88 µM); in assay [5] it was 4 µg/mL (≈ 7.76 µM).

As for `C[C@@H](NC(=O)C(F)F)[C@H]1C(=O)N2C(C(=O)O)=C(S[C@H]3C[C@@H](C(=O)N(C)C)N(C=N)C3)[C@H](C)[C@H]12` [Example 108], the MIC in assay [1] was 128 µg/mL (≈ 263 µM); in assay [2], 1 µg/mL (≈ 2.05 µM); in assay [3], 16 µg/mL (≈ 32.8 µM); in assay [4], 2 µg/mL (≈ 4.1 µM); in assay [5], 4 µg/mL (≈ 8.2 µM).

As to `C[C@@H](NC(=O)C(F)F)[C@H]1C(=O)N2C(C(=O)O)=C(S[C@@H]3CN[C@H](C(=O)N4CCN(C(=O)CN)CC4)C3)[C@H](C)[C@H]12` [Example 159], the MIC in assay [1] was found to be 8 µg/mL (≈ 14.3 µM); in assay [2], 1 µg/mL (≈ 1.79 µM); in assay [3], 4 µg/mL (≈ 7.16 µM); in assay [4], 2 µg/mL (≈ 3.58 µM); in assay [5], 4 µg/mL (≈ 7.16 µM).

For the compound `CNCCN(CC#N)C(=O)[C@@H]1C[C@H](SC2=C(C(=O)O)N3C(=O)[C@H]([C@@H](C)NC(=O)C(F)F)[C@H]3[C@H]2C)CN1` [Example 171], the MIC in assay [1] was greater than 128 µg/mL; in assay [2], 4 µg/mL (≈ 7.57 µM); in assay [3] it was 128 µg/mL (≈ 242 µM); in assay [4], 2 µg/mL (≈ 3.78 µM); in assay [5], 128 µg/mL (≈ 242 µM).
